{
  "source": "paper PMC4322620",
  "about": "(Frontiers in Pharmacology, 2015)",
  "key": {"[1]": {"tested_on": "thermal pain", "details": "mouse, in vivo, ip, 4 mg/kg"}, "[2]": {"tested_on": "acute thermal pain", "details": "mouse, in vivo, ip, 4 mg/kg"}},
  "data": [
    {"molecule": "CC12CC3CC(C)(C1)CC(N)(C3)C2", "note": "[Memantine]", "values": [
      {"measurement": "Hot plate (latency to hindlimb response)", "setting": "[1]", "result": "7.9 ± 0.49", "unit": "s"},
      {"measurement": "Tail flick latency", "setting": "[2]", "result": "4.836 ± 0.264", "unit": "s"}
    ]}
  ]
}
